# Reference: patent US11648254B2 (Kumquat Biosciences Inc., priority 2021, dated 2023)
# Read-outs that look alike come from different tables or passages of the source.
# How the values were obtained:
# SOS1 = SOS1 (Homo sapiens (Human), UniProt Q07889); assay: Ras-SOS interaction assay (HTRF); assay type: biochemical
# [1] = tested on: MIA PaCa-2 cells (K-Ras G12C); assay: Ras-SOS cellular growth inhibition assay (CellTiter-Glo, 3D); assay type: cell-based; conditions: Homo sapiens
# Outline: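 MIA PaCa-2 cells grown in ultra-low-attachment plates (3D) in DMEM/Ham's F12 with 10% FCS and 2.5% horse serum, treated the day after seeding with a 9-point 3-fold compound series for about 5 days. Viability by CellTiter-Glo luminescence; IC50 from four-parameter fit.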
# [2] = tested on: NCI-H1975 cells (EGFR T790M L858R); assay: EGFR-SOS cellular inhibition assay (CellTiter-Glo, 3D); assay type: cell-based; conditions: Homo sapiens
# [3] = K-RasG13D utilized, read-out: IC50 inhibition of SOS
# [4] = K-RasG13D, read-out: IC50 value against SOS1
# [5] = MIA PaCa-2, MIA PaCa-2, read-out: IC50 in inhibiting MIA PaCa-2 cell growth
# [6] = NCI-H1975, EGFR T790M L858R, read-out: IC50 in inhibiting growth of NCI-H1975 cell line
# [7] = MIA PaCa-2, 120 h, MIA PaCa-2, 3D proliferation, about 5 days, read-out: Bio-Cell-Prolif-3D (MiaPaca2 IC50)
# [8] = 120 h, NCI-H1975, 3D proliferation, about 5 days, read-out: Bio-Cell-Prolif-3D (H1975 IC50)
# SOS1, sequence (Q07889 564-1049): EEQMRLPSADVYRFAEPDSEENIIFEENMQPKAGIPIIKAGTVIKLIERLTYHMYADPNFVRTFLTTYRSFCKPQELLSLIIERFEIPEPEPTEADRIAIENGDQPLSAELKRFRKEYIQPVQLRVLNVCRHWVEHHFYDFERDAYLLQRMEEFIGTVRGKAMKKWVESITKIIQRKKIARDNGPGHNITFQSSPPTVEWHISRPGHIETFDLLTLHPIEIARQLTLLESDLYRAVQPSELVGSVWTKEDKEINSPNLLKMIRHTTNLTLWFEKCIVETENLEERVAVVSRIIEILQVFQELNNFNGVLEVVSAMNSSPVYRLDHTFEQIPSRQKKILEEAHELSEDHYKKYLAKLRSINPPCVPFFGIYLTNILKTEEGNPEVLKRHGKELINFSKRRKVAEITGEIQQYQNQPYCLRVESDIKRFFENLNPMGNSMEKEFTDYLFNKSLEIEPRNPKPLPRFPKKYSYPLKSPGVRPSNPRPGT
IC50 (SOS1; [3]) [µM],IC50 (SOS1; [4]) [µM],"IC50 [1, 5] [µM]","IC50 [2, 6] [µM]","IC50 [1, 7] [µM]","IC50 [2, 8] [µM]",SMILES
< 0.1,< 0.05,–,< 0.5,≤ 1,≤ 1,"COc1nc2ncnc(N[C@H](C)c3cccc(C(F)F)c3F)c2cc1C1(C#N)CCS(=O)(=O)CC1 [Compound 342, (R)-4-(4-((1-(3-(difluoromethyl)-2-fluorophenyl)ethyl)amino)-7-methoxypyrido[2,3-d]pyrimidin-6-yl)tetrahydro-2H-thiopyran-4-carbonitrile 1,1-dioxide]"
< 0.1,< 0.05,–,< 0.5,≤ 1,≤ 1,"COCCOc1nc2nc(C)nc(N[C@H](C)c3cccc(C(F)F)c3F)c2cc1N1CCN(C)CC1 [Compound 343, (R)-N-(1-(3-(difluoromethyl)-2-fluorophenyl)ethyl)-7-(2-methoxyethoxy)-2-methyl-6-(4-methylpiperazin-1-yl)pyrido[2,3-d] pyrimidin-4-amine]"
< 0.1,< 0.05,< 0.5,< 0.5,≤ 1,≤ 1,"COc1nc2nc(C)nc(N[C@H](C)c3cccc(C(F)(F)CO)c3)c2cc1N1CCN(C(C)C)CC1 [Compound 345, (R)-2,2-difluoro-2-(3-(1-((6-(4-isopropylpiperazin-1-yl)-7-methoxy-2-methylpyrido[2,3-d]pyrimidin-4-yl)amino)ethyl)phenyl)ethan-1-ol]"
< 0.1,< 0.05,< 0.5,< 0.5,≤ 1,≤ 1,"Cc1nc(N[C@H](C)c2cccc(C(F)(F)F)c2F)c2cc(C3(C#N)CC3)c(N3CCN(C(C)C)CC3)nc2n1 [Compound 346, (R)-1-(4-((1-(2-fluoro-3-(trifluoromethyl)phenyl)ethyl)amino)-7-(4-isopropylpiperazin-1-yl)-2-methylpyrido[2,3-d]pyrimidin-6-yl)cyclopropane-1-carbonitrile]"
< 0.1,< 0.05,< 0.5,< 0.5,≤ 1,≤ 1,"Cc1nc(N[C@H](C)c2cccc(C(F)(F)CO)c2F)c2cc(C3(C#N)CC3)c(N3CCN(C(C)C)CC3)nc2n1 [Compound 347, (R)-1-(4-((1-(3-(1,1-difluoro-2-hydroxyethyl)-2-fluorophenyl)ethyl)amino)-7-(4-isopropylpiperazin-1-yl)-2-methylpyrido[2,3-d]pyrimidin-6-yl)cyclopropane-1-carbonitrile]"
< 0.1,< 0.05,< 0.5,< 0.5,≤ 1,≤ 1,"COc1nc2nc(C)nc(N[C@H](C)c3cccc(C(F)(F)F)c3F)c2cc1N1CCN(C)CC1 [Compound 349, (R)-N-(1-(2-fluoro-3-(trifluoromethyl)phenyl)ethyl)-7-methoxy-2-methyl-6-(4-methylpiperazin-1-yl)pyrido[2,3-d]pyrimidin-4-amine]"
< 0.1,< 0.05,< 0.5,< 0.5,≤ 1,≤ 1,"CCN1CCN(c2cc3c(N[C@H](C)c4cccc(C(F)(F)F)c4C)nc(C)nc3nc2OC)CC1 [Compound 350, (R)-6-(4-ethylpiperazin-1-yl)-7-methoxy-2-methyl-N-(1-(2-methyl-3-(trifluoromethyl)phenyl)ethyl)pyrido [2,3-d]pyrimidin-4-amine]"
< 0.1,< 0.05,< 0.5,< 0.5,≤ 1,≤ 1,"Cc1nc(N[C@H](C)c2cccc(C(F)F)c2F)c2cc(N3CCN(C(C)C)CC3)c(OCCN(C)C)nc2n1 [Compound 359, (R)-N-(1-(3-(difluoromethyl)-2-fluorophenyl)ethyl)-7-(2-(dimethylamino)ethoxy)-6-(4-isopropylpiperazin-1-yl)-2-methylpyrido[2,3-d] pyrimidin-4-amine]"

# More lines, now with the values behind:
SMILES,IC50 (SOS1; [3]) [µM],IC50 (SOS1; [4]) [µM],"IC50 [1, 5] [µM]","IC50 [2, 6] [µM]","IC50 [1, 7] [µM]","IC50 [2, 8] [µM]"
"Cc1nc(N[C@H](C)c2cccc(C(F)F)c2F)c2cc(C3CCN(C)CC3)c(OCCN(C)C)nc2n1 [Compound 334, (R)-N-(1-(3-(difluoromethyl)-2-fluorophenyl)ethyl)-7-(2-(dimethylamino)ethoxy)-2-methyl-6-(1-methylpiperidin-4-yl)pyrido[2,3-d]pyrimidin-4-amine]",< 0.1,< 0.05,< 0.5,< 0.5,–,–
"Cc1nc(N[C@H](C)c2cccc(C(F)F)c2F)c2cc(C3CCN(C(C)C)CC3)c(OC3COC3)nc2n1 [Compound 335, (R)-N-(1-(3-(difluoromethyl)-2-fluorophenyl)ethyl)-6-(1-isopropylpiperidin-4-yl)-2-methyl-7-(oxetan-3-yloxy)pyrido [2,3-d]pyrimidin-4-amine]",< 0.1,–,–,–,≤ 1,≤ 1
"Cc1nc(N[C@H](C)c2cccc(C(F)F)c2F)c2cc(N3CCN(C(C)C)CC3)c(OC3COC3)nc2n1 [Compound 336, (R)-N-(1-(3-(difluoromethyl)-2-fluorophenyl)ethyl)-6-(4-isopropylpiperazin-1-yl)-2-methyl-7-(oxetan-3-yloxy)pyrido [2,3-d]pyrimidin-4-amine]",< 0.1,< 0.05,< 0.5,< 0.5,≤ 1,≤ 1
"COc1nc2nc(C)nc(N[C@H](C)c3cccc(C(F)F)c3F)c2cc1C1CCN(C2CCOCC2)CC1 [Compound 337, (R)-N-(1-(3-(difluoromethyl)-2-fluorophenyl)ethyl)-7-methoxy-2-methyl-6-(1-(tetrahydro-2H-pyran-4-yl)piperidin-4-yl)pyrido[2,3-d]pyrimidin-4-amine]",< 0.1,< 0.05,< 0.5,< 0.5,≤ 1,≤ 1
"COc1nc2nc(C)nc(N[C@H](C)c3cccc(C(F)F)c3F)c2cc1N1CCN(C2CCOCC2)CC1 [Compound 338, (R)-N-(1-(3-(difluoromethyl)-2-fluorophenyl)ethyl)-7-methoxy-2-methyl-6-(4-(tetrahydro-2H-pyran-4-yl)piperazin-1-yl)pyrido[2,3-d]pyrimidin-4-amine]",< 0.1,< 0.05,–,< 0.5,≤ 1,≤ 1
"Cc1nc(N[C@H](C)c2cccc(C(F)F)c2F)c2cc(C3CCN(C(C)C)CC3)c(OC3CNC3)nc2n1 [Compound 340, (R)-7-(azetidin-3-yloxy)-N-(1-(3-(difluoromethyl)-2-fluorophenyl)ethyl)-6-(1-isopropylpiperidin-4-yl)-2-methylpyrido[2,3-d]pyrimidin-4-amine]",< 0.1,< 0.05,–,–,1 to 10,1 to 10
"Cc1nc(N[C@H](C)c2cccc(C(F)F)c2F)c2cc(S(=O)(=O)C3CCN(C)CC3)c(C#N)nc2n1 [Compound 341, (R)-4-((1-(3-(difluoromethyl)-2-fluorophenyl)ethyl)amino)-2-methyl-6-((1-methylpiperidin-4-yl)sulfonyl)pyrido[2,3-d] pyrimidine-7-carbonitrile]",< 0.1,< 0.05,< 0.5,< 0.5,≤ 1,≤ 1
